# Source: patent US8563547B2, “(6,7-dihydro-2-nitro-5H-imidazol[2,1-b][1,3]oxazin-6-yl) amide compounds, preparation methods and uses thereof” (Shanghai Sun-Sail Pharmaceutical Science & Technology Co., …, priority 2010, dated 2013)
# Tests used:
# Assay in all cases: microbe, parasite or virus in culture
# Format in all cases: cell-based, Mycobacterium tuberculosis
# [1] = test system: strain 246: resistant to streptomycin (WHO QC bacterium); conditions: for MIC: Mycobacterium tuberculosis, read-out: drug-resistance bacteria MIC, 246 (S mono-resistance); for MIC value, times as that of PA-824, streptomycin resistance 246: strain 246, relative to PA-824
# [2] = test system: strain 242: resistant to isoniazide (WHO QC bacterium); conditions: for MIC: Mycobacterium tuberculosis, read-out: drug-resistance bacteria MIC, 242 (H mono-resistance); for MIC value, times as that of PA-824, isoniazide resistance 242: strain 242, relative to PA-824
# [3] = test system: strain 261: resistant to rifampicin (WHO QC bacterium); conditions: for MIC: Mycobacterium tuberculosis, read-out: drug-resistance bacteria MIC, 261 (R mono-resistance); for MIC value, times as that of PA-824, rifampicin resistance 261: strain 261, relative to PA-824
compound,measurement,setting,value
"O=[N+]([O-])c1cn2c(n1)OC[C@@H](OCc1ccc(OC(F)(F)F)cc1)C2 [PA-824, reference compound]",MIC,[1],0.5 µg/mL
same,MIC,[2],1 µg/mL
same,MIC,[3],0.5 µg/mL
"O=C(CCN1CCC(Oc2ccc(OC(F)(F)F)cc2)CC1)N[C@@H]1COc2nc([N+](=O)[O-])cn2C1 [Compound 22, (S)-N-(6,7-dihydro-2-nitro-5H-imidazo [2,1-b][1,3]oxazin-6-yl)-3-(4-(4-(trifluoromethoxy)phenoxy)piperid-1-yl)propanamide]",MIC,[1],0.0625 µg/mL
same,"MIC value, times as that of PA-824, streptomycin resistance 246",[1],8 times
same,MIC,[2],0.5 µg/mL
same,"MIC value, times as that of PA-824, isoniazide resistance 242",[2],2 times
same,MIC,[3],< 0.0312 µg/mL
same,"MIC value, times as that of PA-824, rifampicin resistance 261",[3],16 times
"O=C(CN1CCC(Oc2ccc(OC(F)(F)F)cc2)CC1)N[C@@H]1COc2nc([N+](=O)[O-])cn2C1 [Compound 1, (S)-N-(6,7-dihydro-2-nitro-5H-imidazo [2,1-b][1,3]oxazin-6-yl)-2-(4-(4-(trifluoromethoxy)phenoxy)piperid-1-yl)acetamide]",MIC,[1],< 0.0312 µg/mL
same,"MIC value, times as that of PA-824, streptomycin resistance 246",[1],16 times
same,MIC,[2],0.5 µg/mL
same,"MIC value, times as that of PA-824, isoniazide resistance 242",[2],2 times
same,MIC,[3],< 0.0312 µg/mL
same,"MIC value, times as that of PA-824, rifampicin resistance 261",[3],16 times
